Test results: US10028970B2, “Composition comprising cashew apple extract” (NATUREX, priority 2011, dated 2018)

Test: Thermal degradation kinetics of CAE in water at 100° C. (HPLC)
Format: physicochemical
Details: CAE 50 g/L in deionised water
Procedure: The thermal degradation kinetics of CAE in water was investigated at 100° C. CAE was dissolved in deionised water at the concentration of 50 g/L and the solution was well homogenized. Volumes of 4 ml of this solution were placed in glass tubes, sealed, and placed in a mineral oil bath at 100° C. At predetermined intervals: 0, 10, 20, 30, 45, 60, 90, and 120 min, sample tubes were removed from the mineral oil bath and rapidly cooled in ice. For the analysis, 1 ml of each sample was mixed with 4 ml of HPLC grade methanol, homogenized, and filtrated on 0.45 μm HPLC filter. Then, 20 μL of the solution was analyzed in HPLC. The phytochemical composition of the samples was measured by reversed phase liquid chromatography using a C-18 column (ACE, 250×4.6 mm, 5 μm) at 280 nm. The areas under peak of the major components of CAE were measured in the different samples representing different time points of at 100° C.

## O=C(/C=C/c1ccccc1)O[C@@H]1O[C@H](CO)[C@@H](O)[C@H](O)[C@H]1O (relative stereo) [1-O-trans-cinnamoyl-beta-D-glucoside, 1-O-trans-cinnamoyl-beta-D-glucopyranose]
  incubation time after which the amount in the extract was divided by 2: 30 min
120 min
  amount remaining in the extract after 120 min of incubation: almost completely disappeared from the extract
